Experimental data as given in patent US8877819B2, “Methods for treating heat stress and related compositions” (Georgetown University, priority 2008, dated 2014).

Tests used:
[1] = tested on: Zucker Fatty Rats (ZFR); test: Blood pressure and cardiac rate by tail plethysmography; type: in vivo; settings: for SBP over the last month vs control / SBP after heat stress: Experiment 1; for SBP after heat stress: survivors, 12 days after heat stress; for DBP / SBP / Cardiac rate / SBP at the end of study (75 days) vs Lo Asta group / average SBP vs control from 40 days to end of study: Experiment 2; for DBP / SBP / Cardiac rate: 60 days; for Cardiac rate: in beats/min (unit assumed)
Experimental: For two experiments, a total of 96 Zucker Fatty Rats (ZFR) (Charles River, Wilmington, Mass.) were used: 48 in each experiment were divided into four groups of 12 rats. Initial body weights ranged between 434 and 624 g in the first experiment and between 388 and 520 g in the second. All rats consumed a regular rat diet in crushed form (Purina Rat Chow, Ralston Purina, St. Louis, Mo.). Sucrose was added to the pulverized regular rat chow (30%, w/w). The four groups comprised a control eating the described diet and three test groups eating the same diet but with the addition of captopril or astaxanthin (two different doses). […] The amount of astaxanthin added was based on 2% (w/w) content of astaxanthin to powder. The first study continued for 57 days while the second continued for 75 days. SBP was measured by tail plethysmography using two different instruments. As in many previous studies, an instrument from Narco Biosciences (Houston, Tex.) was used. This allowed for rapid measurement SBP with a beeper sound system. The second reading was performed on an instrument obtained from Kent Scientific Corporation (Torrington, Conn.). The latter is a computerized, non-invasive tail cuff acquisition system that utilizes a specially-designed differential pressure transducer to non-invasively measure the blood volume in the tail. This instrument not only records SBP, but also provides measurements of mean blood pressure (MBP), diastolic blood pressure (DBP), and cardiac rate. The two instruments were used interchangeably. Previous experience has shown that the SBP readings were virtually the same by either instrument. Rats were allowed free access to their diet and water until SBP readings were obtained between 13.00 h and 17.00 h after a slight warming. Multiple readings on individual rats were taken. To be accepted, SBP measurements on a given rat had to be stable (consistently within 5 mm Hg).

[2] = tested on: angiotensin-2; test: Serum angiotensin-2 levels (radioimmunoassay); type: in vivo, Zucker Fatty Rats
Experimental: Serum angiotensin-2 was trapped by octylminicolumns (Amprep-C8, 500 mg, Amersham, Buckingshire, UK). Each minicolumn was prewashed with 5 mL of 100% methanol and then with 10 mL of 0.1% trifluoroacetic acid (TFA) in distilled water. After the serum was passed through the minicolumn, it was washed with 0.1% TFA again. […] Samples were collected and dried in a vacuum centrifuge and dissolved in 0.1M Tris-acetate buffer (pH 7.4) containing 2.6 mM disodium salt of ethylenediaminetetra-acetic acid (EDTA), 1 mM phenylmethylsulphonyl fluoride, and 0.1% bovine serum albumin.
Angiotensin-2 was measured by radioimmunoassay using an angiotensin-2 antibody (Peninsula Laboratories Inc., Belmont, Calif.). The sensitivity of the assay is 1.0 pg/tube. The 500-fold diluted angiotensin-2 antibody (100 μL) was added to the sample (400 μL) and standard tubes that were incubated 24 hours at 4° C.

[3] = tested on: MCP-1; test: Cytokine assay (ELISA), MCP-1; type: in vivo, Zucker Fatty Rats; settings: Experiment 2
Experimental: (§1) Various cytokines were measured by ELISA methodology using kits from the following sources: rat MCP-1—Assay Designs Inc., Ann Arbor, Mich.; rat adiponectin—ALPCO Diagnostics, Salem, N.H.; TNF-a, ALPCO Diagnostics, Salem, N.H.; RAT IL-1B—Assay Designs Inc, Ann Arbor, Mich.; RAT IL-6—ALPCO Diagnostics, Salem, N.H.

[4] = tested on: adiponectin; test: Cytokine assay (ELISA), adiponectin; type: in vivo, Zucker Fatty Rats; settings: Experiment 2
Experimental: as §1

[5] = tested on: RAS; test: Losartan challenge (decrease in SBP to estimate activity of the RAS); type: in vivo, Zucker Fatty Rats; settings: losartan 40 mg/kg orally
Excerpt: Three and six hours after lavage, SBP was remeasured. The decreased SBP after losartan was used to estimate activity of the RAS.

[6] = Experiment 2, captopril 30 mg/kg in feed
[7] = Hi Asta, astaxanthin 25 mg/kg in feed
[8] = Lo Asta, astaxanthin 5 mg/kg in feed
[9] = Experiment 2, Hi Asta, astaxanthin 25 mg/kg in feed
[10] = Experiment 2, Lo Asta, astaxanthin 5 mg/kg in feed

Structure (SMILES): C[C@H](CS)C(=O)N1CCC[C@H]1C(=O)O [Captopril, reference compound]
- SBP over the last month vs control ([1]; captopril 30 mg/kg in feed): significantly lower SBP
- SBP after heat stress ([1]; captopril 30 mg/kg in feed): 133.8 ± 2.4 mm Hg
- DBP ([1]; captopril 30 mg/kg in feed): 103.0 ± 1.8 mm Hg
- SBP ([1]; captopril 30 mg/kg in feed): 129.0 ± 1.5 mm Hg
- Cardiac rate ([1]; captopril 30 mg/kg in feed): 393.0 ± 9.3
- SBP at the end of study (75 days) vs Lo Asta group ([1]; captopril 30 mg/kg in feed): significantly lower than in the Lo Asta group
- average SBP vs control from 40 days to end of study ([1]; captopril 30 mg/kg in feed): significantly lower than control
- Angio 2 [2, 6]: 162.0 ± 6.4 pg/mL
- MCP-1 ([3]; captopril 30 mg/kg in feed): 81.0 ± 4.1
- Adiponectin ([4]; captopril 30 mg/kg in feed): 4.27 ± 0.39
- Losartan: decrease in SBP after losartan challenge ([5]; Experiment 1, survivors after heat stress, captopril 30 mg/kg in feed): 29.0 ± 2.4
- Losartan: decrease in SBP after losartan challenge [5, 6]: 30.6 ± 1.8 mm Hg

Structure (SMILES): CC1=C(/C=C/C(C)=C/C=C/C(C)=C/C=C/C=C(C)/C=C/C=C(C)/C=C/C2=C(C)C(=O)[C@@H](O)CC2(C)C)C(C)(C)C[C@H](O)C1=O [Asta, astaxanthin]
- SBP over the last month vs control [1, 7]: significantly lower SBP
- SBP over the last month vs control [1, 8]: tendency for the SBP to be lower
- SBP after heat stress [1, 7]: 133.5 ± 1.5 mm Hg
- SBP after heat stress [1, 8]: 140.0 ± 2.0 mm Hg
- DBP [1, 7]: 102.0 ± 2.0 mm Hg
- SBP [1, 7]: 132.0 ± 1.8 mm Hg
- Cardiac rate [1, 7]: 401.0 ± 10.6
- DBP [1, 8]: 108.0 ± 2.1 mm Hg
- SBP [1, 8]: 134.0 ± 1.6 mm Hg
- Cardiac rate [1, 8]: 387.0 ± 8.6
- SBP at the end of study (75 days) vs Lo Asta group [1, 7]: significantly lower than in the Lo Asta group
- average SBP vs control from 40 days to end of study [1, 7]: significantly lower than control
- average SBP vs control from 40 days to end of study [1, 8]: significantly lower than control
- Angio 2 [2, 9]: 177.0 ± 5.2 pg/mL
- Angio 2 [2, 10]: 197.0 ± 7.2 pg/mL
- MCP-1 [3, 7]: 96.0 ± 4.1
- MCP-1 [3, 8]: 110.0 ± 5.2
- Adiponectin [4, 7]: 4.03 ± 0.40
- Adiponectin [4, 8]: 4.11 ± 0.27
- Losartan: decrease in SBP after losartan challenge ([5]; Experiment 1, survivors after heat stress, Hi Asta, astaxanthin 25 mg/kg in feed): 28.0 ± 2.5
- Losartan: decrease in SBP after losartan challenge ([5]; Experiment 1, survivors after heat stress, Lo Asta, astaxanthin 5 mg/kg in feed): 38.0 ± 3.2
- Losartan: decrease in SBP after losartan challenge [5, 9]: 27.5 ± 1.3 mm Hg
- Losartan: decrease in SBP after losartan challenge [5, 10]: 33.8 ± 2.8 mm Hg
